Data published in US12187707B2, “Pharmaceutical formulations of N-(2-(2-(dimethylamino)ethoxy)-4-methoxy-5-((4-(1-methyl-1H-indol-3-yl)pyrimidin-2-yl)amino)phenyl)acrylaminde and salts thereof” (Beta Pharma, Inc., priority 2017, dated 2025).

Assay: Stability testing of Formulation 1 and 1·Ms by HPLC (assay and total related substances) after storage in a stability chamber
Format: physicochemical
Method: Microcrystalline cellulose (392.43 mg), dicalcium phosphate (735.35 mg), sodium starch glycolate (45.09 mg), silicon dioxide (15.03 mg), and magnesium stearate (15.03 mg) were combined and blended with a vortex mixer in the amounts and proportions indicated in Table 1. The resulting mixture was filtered through a #35 mesh sieve to give Mixture A. A 20.05 mg portion of Mixture A was combined with 5.0 mg of 1·Ms (C27H30N6O3·1.06 CH3SO3H, purity=100%) of crystalline Form 2A in a 40 mL glass vial and blended thoroughly with a vortex mixer to afford Formulation 1, which has a theoretical composition as calculated in Table 1.
All samples were stored in a stability chamber at temperatures of −20° C., 50° C., and at 40° C./75% relative humidity for 2-week and 4-week periods and analyzed for stability. Closed-dish samples were capped and sealed with Parafilm. Open-dish samples were covered by aluminum foil that was pierced with a pinhole.
After reaching room temperature, each sample was added to a 40 mL sample vial containing 10 mL of diluent (0.05% TFA in H2O:MeCN=1:1 v/v) and sonicated for 10 minutes with occasional shaking. All samples were centrifuged at 14,000 rpm for 10 minutes and the supernatant was analyzed by HPLC. The working standard solution (5 mg of 1 Ms in 10 mL of diluent) was used as a reference. Results for Formulation 1 are shown in Table 3, in which purity is measured as percent (%) versus total related substances (TRS). As shown in […] and FIGS. 7 to 9, Formulation 1 was stable over an extended period.

[1] = 40° C. @ 75% relative humidity, 2 weeks
[2] = 40° C. @ 75% relative humidity, 4 weeks

- Assay [1]: 101.1%
- TRS (total related substances) [1]: 0.00%
- Assay [2]: 99.3%
- TRS (total related substances) [2]: 0.00%
- Assay (50° C., 2 weeks): 101.4%
- TRS (total related substances) (50° C., 2 weeks): 0.00%
- Assay (50° C., 4 weeks): 99.9%
- TRS (total related substances) (50° C., 4 weeks): 0.00%
- Assay (Initial): 100.2%
- TRS (total related substances) (Initial): 0.00%
SMILES: C=CC(=O)Nc1cc(Nc2nccc(-c3cn(C)c4ccccc34)n2)c(OC)cc1OCCN(C)C [1 · Ms, N-(2-(2-(Dimethylamino)ethoxy)-4-methoxy-5-((4-(1-methyl-1H-indol-3-yl)pyrimidin-2-yl)amino)phenyl)acrylamide methanesulfonate (1:1)]
